Measurements taken from patent US4640931A, “3-(indian-5-yloxy (or thio)) cyclopentanecarboxylic acid analogues” (Ono Pharmaceutical Co., Ltd., priority 1984, dated 1987).

Key:
[1] = test system: organ slice of cat cerebral cortex (cerebral edema); assay: inhibition test on cerebral edema using organ slice of cat cerebral cortex (NaHCO3-stimulated swelling); format: cell-based; details: for IC50: Felis catus, 50 min, cat cerebral cortex slices, NaHCO3 stimulated swelling, 50 minutes at 37° C., pH 7.4, read-out: Inhibitory activity cerebral edema (IC50); for Relative activity (Compound A = 1): relative to Compound A = 1
Procedure: The inhibition test on cerebral edema using organ slice of cat cerebral cortex The test was carried out by the method described in Journal of Medicinal Chemistry, vol. 25 (No. 5) 567 (1982).
That is, brain was isolated from a cat weighing 2-4 kg, slices of about 1 mm in thickness was prepared, the white matter substance was removed, and the gray matter substance (100-150 mg a test) was used for a sample. The sample was added to the following incubation medium and incuvated for 50 minutes at 37° C. After the incubation, the sample was immediately weighed again to determine the swelling weight of the sample. […]
incubation medium (osmotic pressure, 280-290 mOsm/1)
1. Hepes Buffer (pH 7.4) . . . 2.365 ml […]
adjusted to pH 7.4 by NaOH
2. test compounds [dissolved in the presence of tris(hydroxymethyl)aminomethane] or water . . . 0.01 ml 3. 0.2M NaHCO3 (dissolved by Hepes Buffer, giving the final concentration of 10 mM in medium) or Hepes Buffer . . . 0.125 ml The test was carried out by using NaHCO3 as a stimulating agent of swelling.
(A) A percentage of swelling when a slice sample was added to incubation medium comprising Hepes Buffer (1), water (2) and NaHCO3 (3) (defined as maximum of swelling).
(B) A percentage of swelling when a slice sample was added to incubation medium comprising Hepes Buffer ((1)+(3)) and water (2) (defined as maximum inhibition of swelling).
(C) A percentage of swelling when a slice sample was added to incubation medium comprising Hepes Buffer (1), the test compounds in various concentrations (2) and NaHCO3 (3).
Above-mentioned (A), (B) and (C) were determined. Inhibition percentage of the test compounds was caliculated by the following equation: [formula] IC50 value was determined by dose-response curve as a concentration in which inhibition percentage was 50.

[2] = acute toxicity test; details: in vivo, iv; administered intravenously
Text: On the other hand, it was confirmed that the acute toxicity of the compounds of the present invention was very weak. […] Therefore, compounds of the present invention may be considered to be sufficiently safe and suitable for medical use.

[3] = test system: organ slice of cat cerebral cortex (cerebral edema); details: in words, known DCPIB; cited from earlier work

| Compound | IC50 [1] | Relative activity (Compound A = 1) [1] | LD50 [2] | inhibitory effect on cerebral edema [3] |
| --- | --- | --- | --- | --- |
| CC1(C2CCCC2)Cc2cc(O[C@H]3CC[C@H](C(=O)O)C3)c(Cl)c(Cl)c2C1=O (relative stereo) [Ex. 2, 1,3-trans-3-[((2RS)-2-cyclopentyl-2-methyl-6,7-dichloro-1-oxoindan-5-yl)oxy]cyclopentanecarboxylic acid] | 2.5 nM | 12.8 |  |  |
| CC1(C2CCCC2)Cc2cc(O[C@H]3CC[C@H](C(=O)O)C3)c(Cl)c(Cl)c2C1=O (mixture of isomers) [Ex. 2 (a), (1S, 3S)-3-[((2RS)-2-cyclopentyl-2-methyl-6,7-dichloro-1-oxoindan-5-yl)oxy]cyclopentanecarboxylic acid] | 1.5 nM | 21.3 | 200 to 400 mg/kg |  |
| C[C@]1(C2CCCC2)Cc2cc(OCCCC(=O)O)c(Cl)c(Cl)c2C1=O [Compound A, (+)-4-[((2R)-2-cyclopentyl-2-methyl-6,7-dichloro-1-oxoindan-5-yl)oxy]butyric acid, reference compound] | 32 nM |  |  | strong, but the effect is not enough to use in practice |

Now from value to compound, other results behind:

| IC50 [1] | Compound | Relative activity (Compound A = 1) [1] | LD50 [2] | inhibitory effect on cerebral edema [3] |
| --- | --- | --- | --- | --- |
| 5.9 nM | CC1(C2CCCC2)Cc2cc(S[C@H]3CC[C@H](C(=O)O)C3)c(Cl)c(Cl)c2C1=O (mixture of isomers) [Ex. 2 (b), (1S, 3S)-3-[((2RS)-2-cyclopentyl-2-methyl-6,7-dichloro-1-oxoindan-5-yl)thio]cyclopentanecarboxylic acid] | 5.42 |  |  |
| 1.6 nM | C[C@@]1(C2CCCC2)Cc2cc(O[C@H]3CC[C@H](C(=O)O)C3)c(Cl)c(Cl)c2C1=O [Ex. 2 (c), (1S, 3S)-3-[((2S)-2-cyclopentyl-2-methyl-6,7-dichloro-1-oxoindan-5-yl)oxy]cyclopentanecarboxylic acid] | 20.0 |  |  |
